Measured values published in PubChem BioAssay (NCI).
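Test compounds were applied to cells in 96-well plates for 48 hours at 5 doses. TGI: total growth inhibition.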

Key:
Assay in all cases: NCI-60 cell line screen, 48 h
[1] = system: NCI-H23 lung
[2] = system: HCT-15 colon
[3] = system: HCC-2998 colon
[4] = system: HOP-62 NSCLC
[5] = system: UACC-257 melanoma
[6] = system: SK-MEL-5 melanoma
[7] = system: KM12 colon
[8] = system: MDA-MB-231 breast
[9] = system: UACC-62 melanoma
[10] = system: SF-268 CNS
[11] = system: HS 578T breast
[12] = system: HCT-116 colon

## COC(=O)c1cc2c(c3c1CC(Cc1ccccc1)C3=O)CCC2 (configuration not stated)
[1]
  TGI: > 100 µM
[2]
  TGI: > 100 µM
[3]
  TGI: > 100 µM
[4]
  TGI: > 100 µM
[5]
  TGI: > 100 µM
[6]
  TGI: > 100 µM
[7]
  TGI: 41.8 µM
[8]
  TGI: > 100 µM
[9]
  TGI: > 100 µM
[10]
  TGI: > 100 µM
[11]
  TGI: > 100 µM
[12]
  TGI: > 100 µM

## O=[N+]([O-])/C(C(Cl)=C(Cl)Cl)=C(/Cl)SCc1ccccc1
[1]
  TGI: 23 µM
[2]
  TGI: 19.2 µM
[3]
  TGI: 43.5 µM
[4]
  TGI: 30 µM
[5]
  TGI: 7.03 µM
[6]
  TGI: 20.8 µM
[7]
  TGI: 34.6 µM
[8]
  TGI: 4.32 µM
[9]
  TGI: 14.4 µM
[10]
  TGI: 44.6 µM
[11]
  TGI: 9.67 µM
[12]
  TGI: 3.88 µM

## CCCCc1ccc(-n2sc3ncc(C)cc3c2=O)cc1
[1]
  TGI: > 100 µM
[2]
  TGI: 59.1 µM
[3]
  TGI: > 100 µM
[4]
  TGI: > 100 µM
[6]
  TGI: 46.2 µM
[7]
  TGI: > 100 µM
[8]
  TGI: 44.5 µM
[9]
  TGI: > 100 µM
[11]
  TGI: > 100 µM
[12]
  TGI: > 100 µM

## O=C1CSC2(CC(/C=C/c3cccc([N+](=O)[O-])c3)=NN2c2cccc(S(=O)(=O)O)c2)N1c1nc2ccccc2s1 (configuration not stated)
[1]
  TGI: 43.4 µM
[2]
  TGI: 44.5 µM
[3]
  TGI: > 100 µM
[5]
  TGI: > 100 µM
[6]
  TGI: > 100 µM
[7]
  TGI: 42.2 µM
[8]
  TGI: 43.5 µM
[9]
  TGI: 45.5 µM
[10]
  TGI: > 100 µM
[11]
  TGI: > 100 µM
[12]
  TGI: > 100 µM

## Cc1ccc2nc(N/N=C/c3sccc3C)cc(C)c2c1
[1]
  TGI: > 100 µM
[2]
  TGI: > 100 µM
[3]
  TGI: > 100 µM
[4]
  TGI: > 100 µM
[5]
  TGI: > 100 µM
[6]
  TGI: > 100 µM
[7]
  TGI: > 100 µM
[8]
  TGI: 62.2 µM
[9]
  TGI: > 100 µM
[10]
  TGI: > 100 µM
[11]
  TGI: > 100 µM
[12]
  TGI: > 100 µM

## O=C(N/N=C/c1ccc([N+](=O)[O-])cc1)Nc1ccc(C(=O)O)cc1
[1]
  TGI: > 100 µM
[2]
  TGI: > 100 µM
[3]
  TGI: 52.6 µM
[4]
  TGI: 75 µM
[5]
  TGI: > 100 µM
[6]
  TGI: 45.9 µM
[7]
  TGI: > 100 µM
[8]
  TGI: > 100 µM
[9]
  TGI: > 100 µM
[10]
  TGI: > 100 µM
[11]
  TGI: > 100 µM
[12]
  TGI: > 100 µM

## c1ccc2oc(-c3ccc(-c4nc5ccccc5o4)c4c3CC4)nc2c1
[1]
  TGI: > 100 µM
[2]
  TGI: > 100 µM
[3]
  TGI: > 100 µM
[4]
  TGI: > 100 µM
[5]
  TGI: > 100 µM
[6]
  TGI: > 100 µM
[7]
  TGI: > 100 µM
[8]
  TGI: > 100 µM
[9]
  TGI: > 100 µM
[10]
  TGI: > 100 µM
[11]
  TGI: > 100 µM
[12]
  TGI: > 100 µM

## CC1(C)CC[C@]2(C)CC[C@]3(C)C(=CC[C@@H]4[C@@]5(C)CCC(=O)C(C)(C)[C@@H]5[C@H](O)C[C@]43C)[C@@H]2C1
[1]
  TGI: 35.3 µM
[2]
  TGI: 39.3 µM
[3]
  TGI: 28.9 µM
[4]
  TGI: 31.5 µM
[5]
  TGI: 32.3 µM
[6]
  TGI: 31.5 µM
[7]
  TGI: 37.9 µM
[8]
  TGI: 23.7 µM
[9]
  TGI: 29.4 µM
[10]
  TGI: 32 µM
[11]
  TGI: 36.8 µM
[12]
  TGI: 30.5 µM

## CC1(C)OCC([C@H]2O[C@@H](CC(=S)NCCCCCCCCCCCCNC(=S)C[C@H]3O[C@@H](C4COC(C)(C)O4)[C@H]4OC(C)(C)O[C@H]43)[C@H]3OC(C)(C)O[C@H]32)O1 (some centres not stated)
[1]
  TGI: > 100 µM
[2]
  TGI: > 100 µM
[3]
  TGI: > 100 µM
[4]
  TGI: > 100 µM
[5]
  TGI: > 100 µM
[6]
  TGI: 92.4 µM
[7]
  TGI: > 100 µM
[8]
  TGI: > 100 µM
[10]
  TGI: > 100 µM
[11]
  TGI: > 100 µM
[12]
  TGI: > 100 µM

## O=C1C(Cl)C2(CC(/C=C/c3ccccc3)=NN2c2cccc(S(=O)(=O)O)c2)N1c1nc2ccccc2s1 (configuration not stated)
[1]
  TGI: 28.1 µM
[2]
  TGI: 38.8 µM
[3]
  TGI: 27.8 µM
[5]
  TGI: 54.4 µM
[6]
  TGI: 30.2 µM
[7]
  TGI: 30.9 µM
[8]
  TGI: 29.4 µM
[9]
  TGI: 29.8 µM
[10]
  TGI: 43.4 µM
[11]
  TGI: > 100 µM
[12]
  TGI: 56.1 µM

## OCCN(CCO)c1ncnc2nc[nH]c12
[1]
  TGI: > 100 µM
[2]
  TGI: > 100 µM
[3]
  TGI: > 100 µM
[4]
  TGI: > 100 µM
[5]
  TGI: > 100 µM
[6]
  TGI: > 100 µM
[7]
  TGI: > 100 µM
[8]
  TGI: > 100 µM
[9]
  TGI: > 100 µM
[10]
  TGI: > 100 µM
[11]
  TGI: > 100 µM
[12]
  TGI: > 100 µM

## CC1=NN(c2nc(N)nc(/C(C#N)=C\c3csc([N+](=O)[O-])c3)n2)C(C)(C)C1
[1]
  TGI: 97.5 µM
[2]
  TGI: > 100 µM
[3]
  TGI: > 100 µM
[4]
  TGI: 64.6 µM
[5]
  TGI: > 100 µM
[6]
  TGI: > 100 µM
[7]
  TGI: > 100 µM
[8]
  TGI: 64 µM
[10]
  TGI: 53.4 µM
[11]
  TGI: 54.9 µM
[12]
  TGI: > 100 µM

## c1cnc2c(c1)ccc1cccnc12
[1]
  TGI: > 100 µM
[2]
  TGI: > 100 µM
[3]
  TGI: > 62.4 µM
[4]
  TGI: > 100 µM
[5]
  TGI: > 31.5 µM
[6]
  TGI: > 34 µM
[7]
  TGI: > 100 µM
[8]
  TGI: > 100 µM
[9]
  TGI: > 100 µM
[10]
  TGI: > 100 µM
[11]
  TGI: 97.8 µM
[12]
  TGI: > 100 µM

## CN(C)C(=NCc1ccccc1)NC#N
[1]
  TGI: > 100 µM
[2]
  TGI: > 100 µM
[3]
  TGI: > 100 µM
[4]
  TGI: > 100 µM
[5]
  TGI: > 100 µM
[6]
  TGI: > 100 µM
[7]
  TGI: > 100 µM
[9]
  TGI: > 100 µM
[10]
  TGI: > 100 µM
[12]
  TGI: > 100 µM

## O=C(c1ccccc1)N(C(=O)c1ccccc1)c1nc(SCc2ccccc2)ns1
[1]
  TGI: 57.3 µM
[2]
  TGI: 65.3 µM
[3]
  TGI: 49.9 µM
[4]
  TGI: 87.1 µM
[5]
  TGI: 60.5 µM
[6]
  TGI: 30.6 µM
[7]
  TGI: > 100 µM
[9]
  TGI: 42.9 µM
[10]
  TGI: > 100 µM
[11]
  TGI: 86.3 µM
[12]
  TGI: 57.3 µM

## O=[N+]([O-])c1cccc2nc3ccccc3c(NCCCNc3c4ccccc4nc4cccc([N+](=O)[O-])c34)c12
[1]
  TGI: 0.248 µM
[3]
  TGI: 0.0223 µM
[4]
  TGI: 0.0844 µM
[5]
  TGI: 0.329 µM
[6]
  TGI: 0.0221 µM
[7]
  TGI: 0.073 µM
[8]
  TGI: 0.0311 µM
[9]
  TGI: 0.245 µM
[10]
  TGI: 0.0387 µM
[12]
  TGI: < 0.01 µM

## O=C(c1cccs1)N(C(=S)OCCOc1ccccc1)c1ccccc1
[1]
  TGI: 42.3 µM
[2]
  TGI: 84.7 µM
[3]
  TGI: 59.4 µM
[4]
  TGI: 72.5 µM
[5]
  TGI: 69.9 µM
[7]
  TGI: 81 µM
[8]
  TGI: 61.9 µM
[9]
  TGI: 37.7 µM
[10]
  TGI: > 100 µM
[11]
  TGI: > 100 µM
[12]
  TGI: 44.6 µM

## C/C(=C\CBr)CCC(Br)C(C)(C)Cl (configuration not stated)
[1]
  TGI: > 100 µM
[2]
  TGI: > 100 µM
[4]
  TGI: > 100 µM
[5]
  TGI: > 100 µM
[6]
  TGI: > 100 µM
[7]
  TGI: > 100 µM
[9]
  TGI: > 100 µM
[10]
  TGI: > 100 µM
[12]
  TGI: > 100 µM
